Reference: PMC8655237 (Journal of Advanced Research, 2021)
Where a SMILES comes first, the peptide text is derived from it. [ ]: non-standard residue; d: D form. The star is where a group is joined. Sta = CC(C)C[C@H](N)[C@@H](O)CC(=O)O; Isovaleryl = CC(C)CC(=O)*

Assays:
[1] = test system: Ehrlich Ascites Carcinoma (EAC); assay: Ehrlich ascites carcinoma; type: in vivo, Swiss albino mice; settings: 20 mg/kg bw i.p., day 1-9
[2] = test system: Ornithine decarboxylase (ODC); assay: ODC assay, cell-free; type: biochemical; settings: read-out: IC50 ODC; cell free (In vitro)
ODC mRNA = assay: Real-time qPCR expression analysis; type: cell-based, human; settings: GAPDH internal control
PC-3 [3] = assay: MTT antiproliferative assay; type: cell-based; settings: Homo sapiens, PC-3, 24 h, read-out: IC50 (MTT)
A431 [4] = assay: MTT antiproliferative assay; type: cell-based; settings: Homo sapiens, A-431, 24 h, read-out: IC50 (MTT)
MDA-MB-231 [5] = assay: MTT antiproliferative assay; type: cell-based; settings: Homo sapiens, MDA-MB-231, 24 h, read-out: IC50 (MTT)
PC-3 [6] = assay: NRU antiproliferative assay; type: cell-based; settings: Homo sapiens, PC-3, 24 h, read-out: IC50 (NRU)
A431 [7] = assay: NRU antiproliferative assay; type: cell-based; settings: Homo sapiens, A-431, 24 h, read-out: IC50 (NRU)
MDA-MB-231 [8] = assay: NRU antiproliferative assay; type: cell-based; settings: Homo sapiens, MDA-MB-231, 24 h, read-out: IC50 (NRU)
PC-3 [9] = assay: SRB antiproliferative assay; type: cell-based; settings: Homo sapiens, PC-3, 24 h, read-out: IC50 (SRB)
A431 [10] = assay: SRB antiproliferative assay; type: cell-based; settings: Homo sapiens, A-431, 24 h, read-out: IC50 (SRB)
MDA-MB-231 [11] = assay: SRB antiproliferative assay; type: cell-based; settings: Homo sapiens, MDA-MB-231, 24 h, read-out: IC50 (SRB)
A431 cells [12] = assay: DCFH-DA ROS assay; type: cell-based, human; settings: A431, flow cytometry, 1 µM
A431 cells [13] = assay: Mitochondrial membrane potential; type: cell-based, human; settings: A431, flow cytometry, 1 µM
DHFR mRNA = assay: Real-time qPCR expression analysis; type: cell-based, human; settings: GAPDH internal control
hyaluronidase (HYAL) [14] = assay: Hyaluronidase assay, cell-free; type: biochemical; settings: read-out: IC50 HYAL; cell free (In vitro)
hyaluronidase (HYAL) [15] = assay: Hyaluronidase assay, cell-based; design: species or system human
HYAL mRNA = assay: Real-time qPCR expression analysis; type: cell-based, human; settings: GAPDH internal control
CAT D mRNA = assay: Real-time qPCR expression analysis; type: cell-based, human; settings: GAPDH internal control
FaDu [16] = assay: MTT antiproliferative assay; type: cell-based; settings: Homo sapiens, 24 h, read-out: IC50 (MTT)
K562 [17] = assay: MTT antiproliferative assay; type: cell-based; settings: Homo sapiens, K562, 24 h, read-out: IC50 (MTT)
FaDu [18] = assay: NRU antiproliferative assay; type: cell-based; settings: Homo sapiens, 24 h, read-out: IC50 (NRU)
K562 [19] = assay: NRU antiproliferative assay; type: cell-based; settings: Homo sapiens, K562, 24 h, read-out: IC50 (NRU)
FaDu [20] = assay: SRB antiproliferative assay; type: cell-based; settings: Homo sapiens, 24 h, read-out: IC50 (SRB)
K562 [21] = assay: SRB antiproliferative assay; type: cell-based; settings: Homo sapiens, K562, 24 h, read-out: IC50 (SRB)
tubulin protein = tubulin protein (Sus scrofa, UniProt P02550+P02554); assay: Tubulin polymerization assay; type: biochemical; settings: 10 μM
A549 [22] = assay: MTT antiproliferative assay; type: cell-based; settings: Homo sapiens, A549, 24 h, read-out: IC50 (MTT)
A549 [23] = assay: NRU antiproliferative assay; type: cell-based; settings: Homo sapiens, A549, 24 h, read-out: IC50 (NRU)
A549 [24] = assay: SRB antiproliferative assay; type: cell-based; settings: Homo sapiens, A549, 24 h, read-out: IC50 (SRB)
LOX-5 mRNA = assay: Real-time qPCR expression analysis; type: cell-based, human; settings: GAPDH internal control
[25] = MDA-MB-231, with respect to control

Sequence of tubulin protein (P02550 whole entry): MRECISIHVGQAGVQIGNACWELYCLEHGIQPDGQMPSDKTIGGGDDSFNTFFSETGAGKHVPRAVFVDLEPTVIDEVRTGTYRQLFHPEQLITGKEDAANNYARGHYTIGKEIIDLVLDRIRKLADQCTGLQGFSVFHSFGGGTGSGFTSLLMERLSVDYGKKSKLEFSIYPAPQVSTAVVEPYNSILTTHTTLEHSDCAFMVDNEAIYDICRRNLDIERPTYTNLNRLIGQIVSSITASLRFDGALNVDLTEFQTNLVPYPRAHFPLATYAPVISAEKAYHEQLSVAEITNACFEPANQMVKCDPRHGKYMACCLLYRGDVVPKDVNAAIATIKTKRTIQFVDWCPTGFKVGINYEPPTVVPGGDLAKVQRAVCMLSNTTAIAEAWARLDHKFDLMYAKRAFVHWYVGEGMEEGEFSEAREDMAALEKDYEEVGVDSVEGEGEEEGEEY
Sequence of tubulin protein (P02554 whole entry): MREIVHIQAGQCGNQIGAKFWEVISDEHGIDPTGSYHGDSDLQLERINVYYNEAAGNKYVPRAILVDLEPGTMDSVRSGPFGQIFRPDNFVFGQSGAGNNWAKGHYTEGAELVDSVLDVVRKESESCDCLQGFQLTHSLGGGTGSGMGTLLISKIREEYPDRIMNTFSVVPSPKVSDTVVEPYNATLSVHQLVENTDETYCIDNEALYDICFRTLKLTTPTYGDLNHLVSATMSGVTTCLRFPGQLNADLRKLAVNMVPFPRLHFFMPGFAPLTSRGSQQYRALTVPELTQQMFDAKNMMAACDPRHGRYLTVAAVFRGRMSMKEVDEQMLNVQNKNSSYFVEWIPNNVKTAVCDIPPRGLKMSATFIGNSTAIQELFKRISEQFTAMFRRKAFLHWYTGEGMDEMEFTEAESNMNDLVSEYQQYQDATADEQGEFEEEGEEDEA

For `O=c1[nH]cc(F)c(=O)[nH]1` [5-fluorouracil, reference compound], which “reduction of EAC tumor formation (tumor growth inhibition)” value [1] is on record?
Its value is 98.39%.

What does the source list for `NCCC[C@](N)(C(=O)O)C(F)F` [DFMO, α-difluoromethylornithine]?
IC50 [2]: 7.54 ± 5.8 µM; ODC mRNA expression level (ODC mRNA; A431, with respect to control): 5.42 fold change; ODC mRNA expression level (ODC mRNA; A549, with respect to control): 4.24 fold change; ODC mRNA expression level (ODC mRNA; FaDu, with respect to control): 2.57 fold change; ODC mRNA expression level (ODC mRNA; K562, with respect to control): 4.07 fold change; ODC mRNA expression level (ODC mRNA; [25]): 3.67 fold change; ODC mRNA expression level (ODC mRNA; PC-3, with respect to control): 6.55 fold change

With `COc1cccc2c1C(=O)c1c(O)c3c(c(O)c1C2=O)C[C@@](O)(C(=O)CO)C[C@@H]3O[C@H]1C[C@H](N)[C@H](O)[C@H](C)O1` [Doxorubicin, reference compound] as the molecule, how does the IC50 (PC-3 [3]) read?
The IC50 was 2.24 ± 1.56 µM.

And the IC50 (A431 [4])?
The IC50 was 1.6 ± 0.09 µM.

What about the IC50 (MDA-MB-231 [5]) of the same molecule?
Its IC50 is 1.55 ± 0.95 µM.

And the IC50 (PC-3 [6])?
The IC50 was 1.2 ± 0.36 µM.

And the IC50 (A431 [7])?
Its IC50 is 1.15 ± 0.37 µM.

And the IC50 (MDA-MB-231 [8])?
The IC50 was 3.64 ± 1.8 µM.

And the IC50 (PC-3 [9])?
Its IC50 is 3 ± 1.16 µM.

What about the IC50 (A431 [10]) of the same molecule?
Its IC50 is 1.21 ± 0.03 µM.

And the IC50 (MDA-MB-231 [11])?
Its IC50 is 1.51 ± 0.86 µM.

What about the “total mean of DCF positive cells” value (A431 cells [12]) of the same molecule?
The value was 370 ± 14.14.

And the “total of FITC mean (Rh123)” value (A431 cells [13])?
Its value is 2735 ± 5.65.

How did the “DHFR mRNA expression level” value (DHFR mRNA; A431, with respect to control) turn out when `CN(Cc1cnc2nc(N)nc(N)c2n1)c1ccc(C(=O)N[C@@H](CCC(=O)O)C(=O)O)cc1` [MTX, Methotrexate] was run?
The value was 2.92 fold change.

What about the “DHFR mRNA expression level” value (DHFR mRNA; A549, with respect to control) of the same molecule?
The value was 2.20 fold change.

And the “DHFR mRNA expression level” value (DHFR mRNA; FaDu, with respect to control)?
Its value is 2.82 fold change.

What about the “DHFR mRNA expression level” value (DHFR mRNA; K562, with respect to control) of the same molecule?
Its value is 2.20 fold change.

What about the “DHFR mRNA expression level” value (DHFR mRNA; [25]) of the same molecule?
Its value is 2.59 fold change.

And the “DHFR mRNA expression level” value (DHFR mRNA; PC-3, with respect to control)?
Its value is 2.0 fold change.

Which IC50 (hyaluronidase (HYAL) [14]) does the source give for `CC(=O)N[C@@H](CS)C(=O)O` [NAC, N-acetyl cysteine] here?
Its IC50 is 5.92 ± 0.7 µM.

What about the IC50 (hyaluronidase (HYAL) [15]; read-out: IC50 HYAL, A431) of the same molecule?
Its IC50 is 8.2 ± 1.42 µM.

And the IC50 (hyaluronidase (HYAL) [15]; read-out: IC50 HYAL, A549)?
The IC50 was 13.7 ± 4.37 µM.

And the IC50 (hyaluronidase (HYAL) [15]; read-out: IC50 HYAL, FaDu)?
The IC50 was 7.44 ± 0.67 µM.

And the IC50 (hyaluronidase (HYAL) [15]; read-out: IC50 HYAL, K562)?
The IC50 was 7.56 ± 0.59 µM.

And the IC50 (hyaluronidase (HYAL) [15]; read-out: IC50 HYAL, MDA-MB-231)?
Its IC50 is 14.6 ± 3.07 µM.

And the IC50 (hyaluronidase (HYAL) [15]; read-out: IC50 HYAL, PC-3)?
The IC50 was 9.44 ± 3.13 µM.

What about the “HYAL mRNA expression level” value (HYAL mRNA; A431, with respect to control) of the same molecule?
Its value is 4.50 fold change.

And the “HYAL mRNA expression level” value (HYAL mRNA; A549, with respect to control)?
The value was 4.09 fold change.

And the “HYAL mRNA expression level” value (HYAL mRNA; FaDu, with respect to control)?
Its value is 6.66 fold change.

What about the “HYAL mRNA expression level” value (HYAL mRNA; K562, with respect to control) of the same molecule?
The value was 8.98 fold change.

What about the “HYAL mRNA expression level” value (HYAL mRNA; [25]) of the same molecule?
The value was 6.87 fold change.

And the “HYAL mRNA expression level” value (HYAL mRNA; PC-3, with respect to control)?
Its value is 5.64 fold change.

What does the source list for `CC(C)CC(=O)N[C@H](C(=O)N[C@H](C(=O)N[C@@H](CC(C)C)[C@@H](O)CC(=O)N[C@@H](C)C(=O)N[C@@H](CC(C)C)[C@@H](O)CC(=O)O)C(C)C)C(C)C` [PEP A, pepstatin A, reference compound] (Isovaleryl-VV[Sta]A[Sta]-OH)?
CAT D mRNA expression level (CAT D mRNA; A431, with respect to control): 1.61 fold change; CAT D mRNA expression level (CAT D mRNA; A549, with respect to control): 2.77 fold change; CAT D mRNA expression level (CAT D mRNA; FaDu, with respect to control): 2.22 fold change; CAT D mRNA expression level (CAT D mRNA; K562, with respect to control): 3.12 fold change; CAT D mRNA expression level (CAT D mRNA; [25]): 1.81 fold change; CAT D mRNA expression level (CAT D mRNA; PC-3, with respect to control): 1.66 fold change

For `COc1cc([C@@H]2c3cc4c(cc3[C@H](O)[C@H]3COC(=O)[C@H]23)OCO4)cc(OC)c1OC` [Podophyllotoxin], which IC50 (FaDu [16]) is on record?
Its IC50 is 16.2 ± 1.04 µM.

What about the IC50 (K562 [17]) of the same molecule?
Its IC50 is 46.4 ± 4.27 µM.

And the IC50 (FaDu [18])?
Its IC50 is 25.3 ± 0.28 µM.

And the IC50 (K562 [19])?
Its IC50 is 32.3 ± 3.11 µM.

And the IC50 (FaDu [20])?
Its IC50 is 34.1 ± 1.79 µM.

And the IC50 (K562 [21])?
Its IC50 is 50.26 ± 0.45 µM.

And the “effect on tubulin polymerization” value (tubulin protein)?
The value was “inhibit the polymerization of α and β tubulin”.

With `CC(=O)O[C@H]1C(=O)[C@@]2(C)[C@H]([C@H](OC(=O)c3ccccc3)[C@]3(O)C[C@H](OC(=O)[C@H](O)[C@@H](NC(=O)c4ccccc4)c4ccccc4)C(C)=C1C3(C)C)[C@]1(OC(C)=O)CO[C@@H]1C[C@@H]2O` [Taxol, paclitaxel] as the molecule, how does the IC50 (A549 [22]) read?
The IC50 was 2.1 ± 0.81 µM.

And the IC50 (A549 [23])?
Its IC50 is 1.18 ± 0.13 µM.

What about the IC50 (A549 [24]) of the same molecule?
Its IC50 is 1.15 ± 0.16 µM.

And the “effect on tubulin polymerization” value (tubulin protein)?
The value was “stabilizes the tubulin polymerization”.

With `CC(c1cc2ccccc2s1)N(O)C(N)=O` (stereo not drawn) [Zileuton] as the molecule, how does the “LOX-5 mRNA expression level” value (LOX-5 mRNA; A431, with respect to control) read?
The value was 3.10 fold change.

What about the “LOX-5 mRNA expression level” value (LOX-5 mRNA; FaDu, with respect to control) of the same molecule?
Its value is 2.96 fold change.

And the “LOX-5 mRNA expression level” value (LOX-5 mRNA; K562, with respect to control)?
The value was 3.01 fold change.

What about the “LOX-5 mRNA expression level” value (LOX-5 mRNA; [25]) of the same molecule?
The value was 3.09 fold change.

And the “LOX-5 mRNA expression level” value (LOX-5 mRNA; PC-3, with respect to control)?
The value was 2.22 fold change.
